Reference: patent US20120003298A1, “METHODS FOR INDUCING AN IMMUNE RESPONSE” (priority 2010, published 2012)

Experiments:
[1] = In vivo pharmacodynamics, serum cytokines after intravenous injection; parameters: species or system mouse; settings: 200 nmol intravenously
Protocol: For in vivo pharmacodynamic experiments, 6- to 8-week old C57BU6 mice were intravenously injected with the unconjugated and phospholipid-conjugated TLR7 agonists (200 nmol). Sera were separated and kept at −20° C. until use. The levels of cytokines in the sera were measured by Luminex bead microassay. The minimum detection levels of IL-6 and TNF-alpha were 5 pg/mL and 10 pg/mL, respectively.

[2] = tested on: Escherichia coli WP2 uvrA; assay: Bacterial mutation assay, Escherichia coli; format: cell-based
Protocol: (§1) The five tester strains TA1535, TA1537, TA98, TA100 and WP2 uvrA were used. Experiments were performed both in the absence and presence of metabolic activation, using liver S9 fraction from rats pre-treated with phenobarbitone and betanaphthoflavone. SC12 was used as a solution in dimethylsulfoxide (DMSO).

OVA specific Ig = assay: Adjuvanticity with ovalbumin (OVA), subcutaneous immunization; format: in vivo, mouse
From the text: For the adjuvanticity experiments, mice were subcutaneously immunized with 20 pg ovalbumin (OVA) with 10 nmol or 100 nmol (TLR7 agonist equivalent dose) per mouse in various TLR7 conjugates on days 0 and 7. Sera were collected on days 0, 7, 14, 21, 28, 42, and 56. Mice immunized with saline or OVA mixed with vehicle served as controls. Mice were sacrificed on day 56.
Immunization occurs on day 0 and 7. Serum collection day is on 0, 7, 14, 21, 28, 42 and 56 days.

[3] = tested on: AY-27 rat bladder cancer cell-line; assay: Orthotopic rat bladder cancer model, intravesical instillation; settings: of 14 per group
CYP2E1 = target: T1, CYP2E1 (Homo sapiens, UniProt P05181); assay: Fluorescent High Throughput P450 assay, CYP2E1; format: biochemical
T1 construct: purchased Gentest
Protocol: (§2) Inhibition of the P450 isoforms was measured in specific assays using specific substrates that become fluorescent upon CYP metabolism. Compounds, dissolved in ACN (acetonitrile) (CYP2E1, CYP2C8, CYP2B6, CYP3A5) or DMSO (all remaining isoforms), were tested in duplicate (n=2) in concentration-response curves (eight concentrations) in a 96-well plate containing incubation/NADPH regenerating buffer. Specific isoenzymes and substrates were added and incubated at 37° C. Reactions were terminated at different times, depending on the assays, and plates read on a Fluoroskan Ascent at the appropriate emission/excitation wavelengths. Concentration-response curves performed in duplicate for known inhibitors for each isoenzyme were tested in every assay as positive control.

[4] = tested on: AY-27 rat bladder cancer cell-line; settings: in vivo
[5] = Intravenous pharmacokinetics in the mouse
Protocol: An IV bolus was administered into the caudal vein at a dose of 1 mg/kg in 5 ml. The compound weight was 2.08/10.04 ml. 24 mice were studied. Sampling was obtained by exsanguination under anesthesia, at 5, 15, 30, 60, 240, and 480 minutes, and at 24 hours. […] Animals were sacrificed using ethyl ether at the conclusion of the experiment.
Sample preparation: In a Sirocco filter plate, 100 microliters of plasma were added to 300 microliters of ACN/MeOH spiked with 5 microliters of IS (IV298 10 micrograms per ml) plus 10 microliters of 5% H3PO4. The plate was shaken for 10 minutes at 80 rpm and then filtered under vacuum for 5 minutes.
Analytical method: LC/MS/MS: Premiere XE, Eluent: water (A) MeOH(B) plus 0.1% HCOOH gradient. 15% B to 100% B from 0.1 to 0.5, then isocratic 100% B up to 1.5 minutes, flow 0.8 ml/min; Column Acquity HPLC BEH C18 1.7 microm 2.1×50 mm, injection volume of 5 microliters in a T column at 50° C. ESI positive, MRM, Extractor 5V; Capillary 3.5 kV; T source 115° C.; T desolv. 450° C.
Data analysis: Non-compartmental analysis WinNonlin 5.1; linear trapezoidal, uniform weight.

[6] = Intrabladder application, serum cytokines (Luminex) and histology; format: in vivo, mouse
Protocol: Female C57BU6 mice were anesthetized with ketamine/xylazine. The 50 microliter formulated compounds were intravesically administered for twenty minutes at each treatment. The treatment schedule and doses are in Table 35 and 36, respectively. The levels of cytokines (IL-6, IL-12, and TNF-alpha) were determined by Luminex assay. Paraffin sections were prepared and H & E staining performed.

[7] = tested on: recombinant antigens from Plasmodium falciparum and Mycobacterium ulcerans; assay: Pilot immunization study with adjuvanted recombinant protein antigens; format: in vivo, mouse
Protocol: A pilot immunization study was conducted using Compound A and SC12 adjuvanted protein antigens. The immunization experiments were performed with two recombinant proteins expressed in E. coli. One antigen was derived from the malaria parasite Plasmodium falciparum and the other one from Mycobacterium ulcerans, which cause the ulcerative skin disease Buruli ulcer.

[8] = tested on: Salmonella typhimurium TA1535, TA1537, TA98, TA100; assay: Bacterial mutation assay, Salmonella typhimurium; format: cell-based
Protocol: as §1

CYP3A4 = target: T2, CYP3A4 (Homo sapiens, UniProt P08684); assay: Fluorescent High Throughput P450 assay, CYP3A4; format: biochemical
T2 construct: purchased Gentest
Protocol: as §2

[9] = tested on: Cutaneous Squamous Cell Carcinoma (SCC) cell lines SCL-I, SCL-II, SCC-12, SCC-13
Protocol: SCC cells are grown under standard conditions (10% FBS).
Time and dose dependency of effects on total cell numbers have been investigated by real-time cell analysis, which is based on continuous monitoring of electric conductance in microtiter wells (E-plates, Roche), which corresponds to the cell numbers. […] For these assays 4 cell lines may be used to obtain a representative overview on the effects on SCC cells.

human PBMCs = assay: IL-6 secretion in human PBMCs, two batches of Compound A and SC12 (Example 4); format: cell-based; settings: 5 months storage in DMSO at 4° C.
Protocol: PBMCs were purified from two donors and plated into 96 well plates at 2×10^5 cells/well in RPMI media including human 2% heat inactivated AB serum, glutamine, Pen-strep and β-mercaptoethanol. The cells were treated with TLR7 agonists for 24 h in 4 doses. The conditioned media was removed for ELISA analyses for IL-6, and the EC50 value determined for each compound and each batch.
All compounds were tested in four concentrations (10-1-0.1-0.01 micromolar).
Concentrations of IL-6 were determined by ELISA from R&D Systems using the Microsoft Excel software. The results were analyzed in Graph Pad Prism in order to prepare dose-response curves, and for determination of EC50 values.

PBMCs = assay: IL-6 and TNF-alpha secretion in PBMC model (Model 2), ELISA; format: cell-based, human; settings: three donors
CYP3A5 = target: T3, CYP3A5 (Homo sapiens, UniProt P20815); assay: Fluorescent High Throughput P450 assay, CYP3A5; format: biochemical
T3 construct: purchased Gentest
Protocol: as §2

[10] = Stability on storage by HPLC (solid or chloroform solution; temperature, light); settings: for HPLC % at RRT = 1: SC12
Protocol: At this point, a stability study was conducted on batch CH730/16/8g.
The samples were analyzed at t=0 and after 20 days.

[11] = tested on: myeloid CD11c+/CD123− DCs; assay: FACS, myeloid DC activation in whole blood; format: cell-based, human; settings: 24 hours; 0.1 and 0.5 uM
Protocol: The FACS analysis for donor 1 and donor 2 was made on another day than donor 3. The compound concentrations were as follows:
B cell activation: 2 and 10 uM mDC/pDC: 0.1 and 0.5 uM
The FACS analysis was used to identify whether the test compounds could induce activation of B cells, and two different subsets of dendritic cells, namely the myeloid CD11c+/CD123− DCs and the plasmacytoid CD11c−/CD123+DCs. The following markers were studied to identify the activation status of the different subsets:
The FACS staining was performed according to the manufacturer's instructions. Lysis of red blood cells was performed before FACS staining in order to minimize auto-florescence. To include as many B cells and DCs in the study as possible the FACS analyses were performed on 500,000 cells in total for each staining. A P1 gate was set only to include relevant cells on FSC vs. SSC (see FIGS. 12-15). The results of the individual analysis were present as Mean Fluorescence Intensity (MFI) values, for certain activation marker in a given gate setting, represent the actual cell subset. The isotype background values have been used to set the gates so that a maximum at 2% of unspecific stained cells could be found in the positive gates.
The analysis of myeloid DCs was based on HLA-DR+/CD11c+/CD123-cells, thus all analyzed cells was included in the HLA-DR+(P3) gate and CD11c+/CD123− (Q4) gate (see gates in FIGS. 13-15).

Inv-Myc mice = assay: Mouse skin cancer model (Inv-Myc mice, Tamoxifen induction), topical creams; format: in vivo
Protocol: The mice used are essentially discussed in Pelengaris, S., et al., (1999) Molecular Cell 3:565-77. Activation of c-myc in this model, such as by the application of Tamoxifen, leads to increased keratinocyte proliferation, reversible epidermal hyperplasia, and papillomatosis changes.
Sex-matched 8-15 week old Inv-Myc mice were used for the study. The mice were shaved on the back 24 hours before the daily Tamoxifen induction (1 mg/200 microliters ethanol, day 0 to 7) to an area 5×3 cm^2. […] Mice were sacrificed on day 10. […] Sera were collected when mice were sacrificed and 2 hours after the first cream application in some instances.

[12] = 50.0-5000 micrograms/plate, absence or presence of S9
[13] = up to 5000 micrograms/plate, absence or presence of S9 metabolism

T3 sequence (P20815 whole entry): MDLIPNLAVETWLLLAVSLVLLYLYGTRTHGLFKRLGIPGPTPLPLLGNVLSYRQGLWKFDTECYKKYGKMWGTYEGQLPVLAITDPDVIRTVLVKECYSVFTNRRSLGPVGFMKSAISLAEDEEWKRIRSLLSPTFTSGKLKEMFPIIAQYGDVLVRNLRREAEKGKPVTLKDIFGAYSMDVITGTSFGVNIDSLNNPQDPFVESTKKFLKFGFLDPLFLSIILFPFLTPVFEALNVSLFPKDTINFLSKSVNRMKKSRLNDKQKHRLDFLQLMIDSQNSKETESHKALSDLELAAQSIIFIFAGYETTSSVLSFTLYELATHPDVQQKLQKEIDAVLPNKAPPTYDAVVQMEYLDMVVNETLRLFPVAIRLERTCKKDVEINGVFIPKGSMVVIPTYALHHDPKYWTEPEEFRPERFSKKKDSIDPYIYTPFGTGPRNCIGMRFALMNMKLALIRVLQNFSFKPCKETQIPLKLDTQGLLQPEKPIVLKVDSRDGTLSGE
T1 sequence (P05181 whole entry): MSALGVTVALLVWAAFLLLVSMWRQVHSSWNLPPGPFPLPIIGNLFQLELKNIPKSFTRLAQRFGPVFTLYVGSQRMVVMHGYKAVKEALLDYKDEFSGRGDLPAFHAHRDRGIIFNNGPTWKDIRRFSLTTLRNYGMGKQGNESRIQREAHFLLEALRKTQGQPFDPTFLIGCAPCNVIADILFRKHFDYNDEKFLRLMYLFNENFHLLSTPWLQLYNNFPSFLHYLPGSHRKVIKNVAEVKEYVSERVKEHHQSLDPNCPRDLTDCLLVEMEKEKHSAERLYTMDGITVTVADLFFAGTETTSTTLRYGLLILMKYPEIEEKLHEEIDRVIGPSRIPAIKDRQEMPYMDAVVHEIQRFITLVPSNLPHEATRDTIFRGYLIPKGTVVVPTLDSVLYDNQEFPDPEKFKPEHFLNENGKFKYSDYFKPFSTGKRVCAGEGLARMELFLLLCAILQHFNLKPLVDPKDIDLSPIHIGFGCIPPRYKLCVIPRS
T2 sequence (P08684 whole entry): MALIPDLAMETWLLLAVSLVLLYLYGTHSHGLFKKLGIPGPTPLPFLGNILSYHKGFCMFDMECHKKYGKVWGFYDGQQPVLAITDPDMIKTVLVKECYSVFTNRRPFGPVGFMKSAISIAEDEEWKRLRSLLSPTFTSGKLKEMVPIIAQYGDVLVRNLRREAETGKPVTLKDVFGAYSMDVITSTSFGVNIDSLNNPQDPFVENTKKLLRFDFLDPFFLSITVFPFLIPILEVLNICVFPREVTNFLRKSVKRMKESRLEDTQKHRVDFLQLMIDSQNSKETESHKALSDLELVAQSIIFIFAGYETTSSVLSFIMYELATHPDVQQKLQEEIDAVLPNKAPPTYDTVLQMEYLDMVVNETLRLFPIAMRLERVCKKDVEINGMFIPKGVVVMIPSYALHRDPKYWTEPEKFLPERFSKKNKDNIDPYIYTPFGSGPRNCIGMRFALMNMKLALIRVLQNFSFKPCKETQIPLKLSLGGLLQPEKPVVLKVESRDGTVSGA

CCCCCCCCCCCC(=O)OCC(COP(=O)(O)OCCNC(=O)c1ccc(Cn2c(=O)[nH]c3c(N)nc(OCCOC)nc32)cc1)OC(=O)CCCCCCCCCCC (stereo not drawn) [SC12]
time course of cytokine induction [1]: lower but sustained cytokine induction than the free ligand | serum proinflammatory cytokine levels ([1]; C57BL/6 mice): induced similar levels of the proinflammatory cytokines IL-6, IL-12 and TNF-alpha | toxicity to tester strains [2, 12]: No toxicity was observed with any tester strain at any dose level | reverse mutation [2, 13]: does not induce reverse mutation | adjuvant potency, Th1 immune response (OVA specific Ig; 100 nmoles SC12 equivalent to 10 nmoles compound A): 10 times less potent than compound A or compound A* | antigen specific IgG2a (OVA specific Ig; OVA 20 μg with 10 or 100 nmoles, days 0 and 7): significantly higher than the immunization with OVA alone | OVA-specific IgG1 (OVA specific Ig; mouse, in vivo): not found to induce high levels of OVA-specific IgG1 | Number of rat bladders Tumor free [3]: 6 | Number of rat bladders with pT2 Tumor [3]: 7 | Number of rat bladders with pTa Tumor [3]: 1 | Tumor free, share of group [3]: 42.9% | pT2 Tumor, share of group [3]: 50.0% | pTa Tumor, share of group [3]: 7.1% | inhibition of CYP2E1 (CYP2E1): moderate inhibition | toxicity [4]: No signs of toxicity | adverse behavioral effects ([5]; IV 1 mg/kg): No adverse behavioral effects were noted | AUC INF obs ([5]; IV bolus 1 mg/kg, plasma): 12878 ng·min/mL | AUClast ([5]; IV bolus 1 mg/kg, plasma): 11744 ng·min/mL | serum IL-12 ([6]; day 0, 2 hour time point, intravesical about 207 nmoles in 50 μl): elevated levels of IL-12 | bladder histology, cell infiltration ([6]; day 7): immune cell infiltration in the bladder | local side effects ([7]; subcutaneous, 10 nMol): No local side effects | IgG responses against the target antigens ([7]; three subcutaneous immunizations, 20 micrograms antigen with 10 nMol adjuvant): developed IgG responses | toxicity to tester strains [8, 12]: No toxicity was observed with any tester strain at any dose level | reverse mutation [8, 13]: does not induce reverse mutation | inhibition of CYP3A4 (CYP3A4): moderate inhibition | cell numbers, real-time cell analysis ([9]; FIG. 11): reduced cell numbers | morphology and proliferation ([9]; day 3, 120 microM): cell detachment, morphological changes and inhibition of proliferation | activity after storage (human PBMCs): have not lost activity | potency for TNF-alpha secretion (PBMCs): on average slightly more potent than compound A | inhibition of CYP3A5 (CYP3A5): moderate inhibition | HPLC % at RRT = 1 ([10]; Solid, RT and light, t = 20 days): RRT = 1: 87.8% | HPLC % at RRT = 1 ([10]; Solid, external T and light, t = 20 days): RRT = 1: 84.0% | HPLC % at RRT = 1 ([10]; Solution in CHCl3, RT and light, t = 0): RRT = 1: 90.3% | HPLC % at RRT = 1 ([10]; Solution in CHCl3, RT and light, t = 20 days): RRT = 1: 88.0% | stability compared with compound A ([10]; storage 20 days): more stable than compound A | CCR7 expression in mDCs (MFI, words) [11]: less potent stimulator of CCR7 expression | CD80 expression in mDCs (MFI, words) [11]: noteworthy CD80 expression in all three donors | CD86 expression in mDCs (MFI, words) [11]: weak CD86 expression in donor 2 and 3, but not in donor 1 | serum IL-6 (Inv-Myc mice; 2 hours after the first administration): less IL-6 than Aldara | Ki67 positive cells (Inv-Myc mice; Experiment 1): decreased Ki67 positive cells | gross appearance of skin (Inv-Myc mice; Experiment 1): redness and scaling | gross appearance of skin (Inv-Myc mice; Experiment 2): smooth and soft | skin thickness (Inv-Myc mice; Experiment 2): decreased development of skin thickness | acanthosis (Inv-Myc mice; cream every other day, days 0-8): reduction in acanthosis | eczematous reaction (Inv-Myc mice; mouse, in vivo): less eczematous reaction than Aldara (Imiquimod) cream
